These results are taken from patent publication EP4570805A1, “TRICYCLIC COMPOUNDS AND MEDICAL USE THEREOF” (Chia Tai Tianqing Pharmaceutical Group Co., Ltd., priority 2022, dated 2024).

One test concerns Capan-1 cells. Put plainly: Inhibitory activity for Capan-1 cell proliferation (CCK-8). As to conditions: 5 days incubation. It counts as cell-based. Here is the method: Capan-1 cells in a well-growing state were collected into a centrifuge tube, adjusted to a cell density of 1.5 × 10^4 cells/mL, and inoculated onto a 96-well plate (100 µL/well). […] Meanwhile, a control was set. After 5 days of incubation in the cell incubator, the assay reagent CCK-8 (manufacturer: Dojindo Laboratories, Beijing; 10 µL/well) was added. After 4 h of incubation in the cell incubator, the absorbance was measured at 450 nm on a PerkinElmer Envision microplate reader. A four-parameter analysis was performed, a dose-response curve was fitted, and IC50 was calculated.
In the case of `[2H]C([2H])(Oc1nc2c3c(nc(-c4cc(O)cc5ccc(F)c(C#C)c45)c(F)c3n1)OC[C@H](C)N2C(C)c1cccnc1N)[C@@]12CCCN1C[C@H](F)C2` (single isomer, unassigned) [Example 72], the IC50 was < 0.1 µM.

As for `C#Cc1c(F)ccc2cccc(-c3nc4c5c(nc(OC[C@@H]6CCCN6C)nc5c3F)N(C(C)c3cccnc3N)[C@@H](C)CO4)c12` (single isomer, unassigned) [Example 88], the IC50 was < 0.1 µM.

For the compound `C#Cc1c(F)ccc2cc(O)cc(-c3nc4c5c(nc(OC[C@@H]6C[C@@H](F)CN6C)nc5c3F)N(C(C)c3cccnc3N)[C@@H](C)CO4)c12` (single isomer, unassigned) [Example 147], the IC50 is < 0.1 µM.

Consider `C#Cc1c(F)ccc2cc(O)cc(-c3nc4c5c(nc(OCC6(CN7CCOCC7)CC6)nc5c3F)N(C(C)c3cccnc3N)[C@@H](C)CO4)c12` (single isomer, unassigned) [Example 70], for which the IC50 is < 0.1 µM.

In the case of `C#Cc1c(F)ccc2cc(O)cc(-c3nc4c5c(nc(OC[C@@H]6COCCN6C)nc5c3F)N(C(C)c3cccnc3N)[C@@H](C)CO4)c12` (single isomer, unassigned) [Example 92], the IC50 is < 0.1 µM.

Consider `C#Cc1cccc2cccc(-c3nc4c5c(nc(OC[C@@]67CCCN6C[C@H](F)C7)nc5c3F)N(C(C)c3cccnc3N)[C@@H](C)CO4)c12` (single isomer, unassigned) [Example 131], for which the IC50 is < 0.1 µM.

On to `C#Cc1c(F)ccc2cccc(-c3nc4c5c(nc(OCC67CCCN6CC(F)C7)nc5c3F)N(C(C)c3cccnc3N)C(C)CO4)c12` (single isomer, unassigned) [Example 48], for which the IC50 is < 0.1 µM.

As for `CC(c1cccnc1N)N1c2nc(OC[C@@]34CCCN3C[C@H](F)C4)nc3c(F)c(-c4cc(N)cc(Cl)c4C(F)(F)F)nc(c23)OC[C@@H]1C` (single isomer, unassigned) [Example 64], the IC50 was < 0.1 µM.

Still in this test, the particulars now being: Homo sapiens, CAPAN-1, 120 h, 5 days incubation.
On to `C#Cc1c(F)ccc2cc(O)cc(-c3nc4c5c(nc(OCCCN6CCCC6)nc5c3F)N(C(C)c3cccnc3N)[C@@H](C)CO4)c12` (single isomer, unassigned) [Example 132], for which the IC50 is < 0.1 µM.

Consider `C#Cc1c(F)ccc2cc(O)cc(-c3nc4c5c(nc(OCC(C)CN(C)C)nc5c3F)N(C(C)c3cccnc3N)[C@@H](C)CO4)c12` (single isomer, unassigned) [Example 144], for which the IC50 was < 0.1 µM.

Regarding `C#Cc1c(F)ccc2cc(O)cc(-c3nc4c5c(nc(OC[C@H](C)OC)nc5c3F)N(C(C)c3cccnc3N)[C@@H](C)CO4)c12` (single isomer, unassigned) [Example 73], the IC50 was < 0.1 µM.

For the compound `Cc1cccc(-c2nc3c4c(nc(OC[C@@]56CCCN5C[C@H](F)C6)nc4c2F)N(C(C)c2cccnc2N)[C@@H](C)CO3)c1N(C)C` (single isomer, unassigned) [Example 128], the IC50 was < 0.1 µM.

On to `C#Cc1c(F)ccc2cc(O)cc(-c3nc4c5c(nc(OCc6nccn6C)nc5c3F)N(C(C)c3cccnc3N)[C@@H](C)CO4)c12` (single isomer, unassigned) [Example 93], for which the IC50 was < 0.1 µM.

Regarding `C#Cc1c(F)ccc2cc(O)cc(-c3nc4c5c(nc(OC[C@@H](C)OC)nc5c3F)N(C(C)c3cccnc3N)[C@@H](C)CO4)c12` (single isomer, unassigned) [Example 75], the concentration for half-maximal inhibition (IC50) is < 0.1 µM.

For the compound `C#Cc1c(F)ccc2cc(O)cc(-c3nc4c5c(nc(OCCN6CCCCC6)nc5c3F)N(C(C)c3cccnc3N)[C@@H](C)CO4)c12` (single isomer, unassigned) [Example 166], the IC50 is < 0.1 µM.

In the case of `C#Cc1c(F)ccc2cc(O)cc(-c3nc4c5c(nc(OC[C@@H]6COCCN6C)nc5c3F)N(C(C)c3cccnc3N)[C@@H](C)CO4)c12` (single isomer, unassigned) [Example 91], the IC50 was < 0.1 µM.

For the compound `C#Cc1c(F)ccc2cc(O)cc(-c3nc4c5c(nc(OC[C@@H](C)N6CCC6)nc5c3F)N(C(C)c3cccnc3N)[C@@H](C)CO4)c12` (single isomer, unassigned) [Example 174], the IC50 was < 0.1 µM.

Take `C#Cc1c(F)ccc2cc(O)cc(-c3nc4c5c(nc(OCCCN6CCOCC6)nc5c3F)N(C(C)c3cccnc3N)[C@@H](C)CO4)c12` (single isomer, unassigned) [Example 154]: the concentration for half-maximal inhibition (IC50) was < 0.1 µM.

For the compound `Cc1cccc(-c2nc3c4c(nc(OCC56CCCN5CC(F)C6)nc4c2F)N(C(C)c2cccnc2N)C(C)CO3)c1C(F)(F)F` (single isomer, unassigned) [Example 55], the IC50 was < 0.1 µM.

On to `C#Cc1c(F)ccc2cc(O)cc(-c3nc4c5c(nc(OC)nc5c3F)N(C(C)c3cccnc3N)[C@@H](C)CO4)c12` (single isomer, unassigned) [Example 65], for which the IC50 is < 0.1 µM.

As for `CC(c1cccnc1N)N1c2nc(OC[C@@]34CCCN3C[C@H](F)C4)nc3c(F)c(-c4ccc(F)c5sc(N)nc45)nc(c23)OC[C@@H]1C` (single isomer, unassigned) [Example 116], the IC50 is < 0.1 µM.

`Cc1cccc(-c2nc3c4c(nc(OC[C@@H]5CCCN5C)nc4c2F)N(C(C)c2cccnc2N)[C@@H](C)CO3)c1C(F)(F)F` (single isomer, unassigned) [Example 160]: the IC50 is < 0.1 µM.

Take `C#Cc1c(F)ccc2cc(O)cc(-c3nc4c5c(nc(OCC6(N)CC6)nc5c3F)N(C(C)c3cccnc3N)[C@@H](C)CO4)c12` (single isomer, unassigned) [Example 99]: the IC50 was < 0.1 µM.

In the case of `CC(c1cccnc1N)N1c2nc(OC[C@@]34CCCN3C[C@H](F)C4)nc3c(F)c(-c4ccc(F)c5sc(N)c(C#N)c45)nc(c23)OC[C@@H]1C` (single isomer, unassigned) [Example 82], the IC50 was < 0.1 µM.

For `CC(c1cccnc1N)N1c2nc(OC[C@@]34CCCN3C[C@H](F)C4)nc3c(F)c(-c4ccccc4N(C)C)nc(c23)OC[C@@H]1C` (single isomer, unassigned) [Example 57], the IC50 was < 0.1 µM.

With `C#Cc1c(F)ccc2cc(O)cc(-c3nc4c5c(nc(OCC(C)(C)OC)nc5c3F)N(C(C)c3cccnc3N)[C@@H](C)CO4)c12` (single isomer, unassigned) [Example 77], the IC50 was < 0.1 µM.

As to `C#Cc1c(F)ccc2cc(O)cc(-c3nc4c5c(nc(OC[C@@H](C)N(C)C)nc5c3F)N(C(C)c3cccnc3N)[C@@H](C)CO4)c12` (single isomer, unassigned) [Example 152], the IC50 was < 0.1 µM.

In the case of `C#Cc1c(F)ccc2cc(O)cc(-c3nc4c5c(nc(OCCN6CCN(C)CC6)nc5c3F)N(C(C)c3cccnc3N)[C@@H](C)CO4)c12` (single isomer, unassigned) [Example 168], the IC50 was < 0.1 µM.

For `C#Cc1c(F)ccc2cc(O)cc(-c3nc4c5c(ncnc5c3F)N(C(C)c3cccnc3N)[C@@H](C)CO4)c12` (single isomer, unassigned) [Example 89], the IC50 is < 0.1 µM.

Turning to `C#Cc1c(F)ccc2cc(O)cc(-c3nc4c5c(nc(OCCN6CCOCC6)nc5c3F)N(C(C)c3cccnc3N)[C@@H](C)CO4)c12` (single isomer, unassigned) [Example 136], the IC50 was < 0.1 µM.

As to `CC(c1cccnc1N)N1c2nc(OC[C@@]34CCCN3C[C@H](F)C4)nc3c(F)c(-c4cccc(F)c4N(C)C)nc(c23)OC[C@@H]1C` (single isomer, unassigned) [Example 126], the IC50 is < 0.1 µM.

As to `C#Cc1c(F)ccc2cc(O)cc(-c3nc4c5c(nc(OC[C@@]67CCCN6C[C@H](F)C7)nc5c3F)N(CC(F)F)C(C)CO4)c12` (stereo partly shown) [Example 50], the IC50 is < 0.1 µM.

As to `CC(c1cccnc1N)N1c2nc(OC[C@@]34CCCN3C[C@H](F)C4)nc3c(F)c(-c4ccc(F)c5sc(N)c(C#N)c45)nc(c23)OC[C@@H]1C` (stereo partly shown) [Example 81], the IC50 was < 0.1 µM.

In the case of `CC(c1cccnc1N)N1c2nc(OC[C@@]34CCCN3C[C@H](F)C4)nc3c(F)c(-c4cccc5ccccc45)nc(c23)OC[C@@H]1C` (single isomer, unassigned) [Example 59], the IC50 was < 0.1 µM.

Take `C#Cc1c(F)ccc2cc(O)cc(-c3nc4c5c(nc(OCCCN6CCN(C)CC6)nc5c3F)N(C(C)c3cccnc3N)[C@@H](C)CO4)c12` (single isomer, unassigned) [Example 170]: the IC50 was < 0.1 µM.

`C#Cc1c(F)ccc2cc(O)cc(-c3nc4c5c(nc(OC[C@@]67CCCN6C[C@H](F)C7)nc5c3F)N(C(C)c3cccnc3N)[C@H](C)CO4)c12` (stereo partly shown) [Example 41]: the IC50 is < 0.1 µM.

Take `C#Cc1c(F)ccc2cc(O)cc(-c3nc4c5c(nc(OCC67CCCN6CC(F)C7)nc5c3F)N(C3CC3)C(C)CO4)c12` (single isomer, unassigned) [Example 45]: the IC50 is < 0.1 µM.

With `CC(c1cccnc1N)N1c2nc(OC[C@@]34CCCN3C[C@H](F)C4)nc3c(F)c(-c4ccccc4C(F)(F)F)nc(c23)OC[C@@H]1C` (single isomer, unassigned) [Example 61], the IC50 was < 0.1 µM.

As for `CC(c1cccnc1N)N1c2nc(OC[C@@H]3CCCN3C)nc3c(F)c(-c4ccc(F)c5sc(N)c(C#N)c45)nc(c23)OC[C@@H]1C` (single isomer, unassigned) [Example 158], the IC50 is < 0.1 µM.

As for `CC(c1cccnc1N)N1c2nc(OC[C@@]34CCCN3C[C@H](F)C4)nc3c(F)c(-c4cccc5ccc(F)c(F)c45)nc(c23)OC[C@@H]1C` (single isomer, unassigned) [Example 120], the IC50 is < 0.1 µM.

Regarding `C#Cc1c(F)ccc2cc(O)cc(-c3nc4c5c(nc(OC[C@@H]6CN(C)CCN6C)nc5c3F)N(C(C)c3cccnc3N)[C@@H](C)CO4)c12` (single isomer, unassigned) [Example 109], the IC50 was < 0.1 µM.

As to `CC(c1cccnc1N)N1c2nc(OC[C@@]34CCCN3C[C@H](F)C4)nc3c(F)c(-c4cc(N)cc(Cl)c4C(F)(F)F)nc(c23)OC[C@@H]1C` (single isomer, unassigned) [Example 63], the IC50 was < 0.1 µM.

Regarding `C#Cc1c(F)ccc2cc(O)cc(-c3nc4c5c(nc(OCCCN6CCCCC6)nc5c3F)N(C(C)c3cccnc3N)[C@@H](C)CO4)c12` (single isomer, unassigned) [Example 142], the IC50 was < 0.1 µM.
